Active and inactive are the calls of the source. No cut-off for these calls is given here.
Experiments:
HL-60 [1] = assay: Growth inhibition of human HL60 cells at greater than 10 uM after 48 hrs by trypan blue assay; type: functional, cell-based
HL-60 [2] = assay: Growth inhibition of human HL60 cells at 5 after 72 hrs in serum free medium; type: functional, cell-based
HL-60 [3] = assay: Enhancement of human HL60 cells growth at less than 10 uM after 48 hrs by trypan blue assay; type: functional, cell-based
HL-60 [4] = assay: Antiproliferative activity against human HL60 cells after 72 hrs in serum free medium; type: functional
HL-60 [5] = assay: Growth inhibition of human HL60 cells at 2.5 uM after 72 hrs in serum free medium; type: functional, cell-based
HL-60 [6] = assay: Growth inhibition of human HL60 cells after 48 hrs by trypan blue assay; type: functional, cell-based; conditions: HL-60, 48 h
HL-60 [7] = assay: Inhibition of daunorubicin-induced apoptosis in human HL60 cells at 2.5 uM after 48 hrs; type: functional, cell-based
HL-60 [8] = assay: Enhancement of human HL60 cells growth assessed as promotion of G1 to S transition at 2.5 uM after 24 hrs by flow cytometry; type: functional, cell-based
HL-60 [9] = assay: Antiapoptotic activity in human HL60 cells at 2.5 to 5 uM after 72 hrs in serum free medium relative to control; type: functional
HL-60 [10] = assay: Enhancement of human HL60 cells growth at 5 uM after 72 hrs in serum free medium; type: functional, cell-based
HL-60 [11] = assay: Antiapoptotic activity in human HL60 cells after 72 hrs in serum free medium relative to control; type: functional
HL-60 [12] = assay: Enhancement of human HL60 cells growth at 1 uM after 72 hrs in serum free medium; type: functional, cell-based
HL-60 [13] = assay: Enhancement of human HL60 cells growth at 2.5 uM after 72 hrs in serum free medium; type: functional, cell-based

`O=C(O)c1ccc(-c2ccc(-c3ccc(O)c(C45CC6CC(CC(C6)C4)C5)c3)cc2)cc1` was tested, and the Activity (HL-60 [1]) was “Active”.

In the case of `O=C(O)c1ccc(C2=NOC(c3ccc(O)c(C45CC6CC(CC(C6)C4)C5)c3)C2)cc1` (stereo not drawn), the Activity (HL-60 [1]) is reported as “Active”, the Activity (HL-60 [2]) is reported as “Active” and the Activity (HL-60 [3]) is reported as “Active”. For the same molecule, the “growth inhibition (GI)” value (HL-60 [4]) was 70% and the Activity (HL-60 [5]) was “Active”.

With `O=C(O)c1ccc(-c2cccc(-c3ccc(O)c(C45CC6CC(CC(C6)C4)C5)c3)c2)cc1` the Activity (HL-60 [1]) was “Active”.

`O=C(O)c1ccc(-c2ccccc2-c2ccc(O)c(C34CC5CC(CC(C5)C3)C4)c2)cc1` was tested, and the IC50 (HL-60 [6]) was 8 µM.

For `O=[N+]([O-])c1ccc(-c2cc(-c3ccc(O)c(C45CC6CC(CC(C6)C4)C5)c3)no2)cc1`, the Activity (HL-60 [1]) was “Active”, the Activity (HL-60 [7]) was “Active” and the Activity (HL-60 [8]) was “Active”. The Activity (HL-60 [9]) was 10%, the Activity (HL-60 [3]) was “Active” and the Activity (HL-60 [10]) was “Active”. The “growth inhibition (GI)” value (HL-60 [4]) was 70%.

In the case of `O=C(O)c1ccc(-c2cc(-c3ccc(O)c(C45CC6CC(CC(C6)C4)C5)c3)on2)cc1`, the IC50 (HL-60 [6]) is reported as 3 µM.

Molecule `COc1cc(-c2cccc(-c3ccc(C(=O)O)cc3)c2)cc(OC)c1OC` has an Activity (HL-60 [11]) of 17%.

`O=[N+]([O-])c1ccc(-c2cc(-c3ccc(O)c(C45CC6CC(CC(C6)C4)C5)c3)on2)cc1` was tested, and the Activity (HL-60 [12]) was “Active”, the Activity (HL-60 [1]) was “Active” and the Activity (HL-60 [3]) was “Active”. For the same molecule, the “growth inhibition (GI)” value (HL-60 [4]) was 70% and the Activity (HL-60 [13]) was “Active”.

For `COc1cc(-c2ccc(-c3ccc(C(=O)O)cc3)cc2)cc(OC)c1OC`, the Activity (HL-60 [11]) was 18%.

From ChEMBL document CHEMBL1155845, “Novel terphenyls and 3,5-diaryl isoxazole derivatives endowed with growth supporting and antiapoptotic properties” (J Med Chem, 2008)
